Experimental data as given in ChEMBL document CHEMBL1201862, “PubChem BioAssay data set” (2004).
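Five compound concentrations were applied to cells in 96-well plates for 48 hours; endpoints were derived by simple linear interpolation of the resulting dose-response curve. The concentration for 50% growth inhibition is given as GI50.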 Activity calls are given as the source filed them. No stated cut-off is given here; in the data, active = GI50 up to about 1.1 µM and inactive = higher. Where a SMILES comes first, the peptide text is derived from it. [ ]: non-standard residue; d: D form. Phe(4-NO2) = N[CH](Cc1ccc([N+](=O)[O-])cc1)C(=O)O

Tests used:
Experiment in all cases: NCI tumour cell line growth inhibition, 48 h
[1] = system: Malme-3M
[2] = system: M14
[3] = system: UO-31
[4] = system: NCI-H23
[5] = system: OVCAR-4
[6] = system: BT-549
[7] = system: K562
[8] = system: HT-29
[9] = system: SF-295
[10] = system: SN12C
[11] = system: IGROV-1
[12] = system: SNB-75
[13] = system: NCI-H522
[14] = system: HL-60
[15] = system: SNB-19
[16] = system: CAKI-1
[17] = system: SK-OV-3
[18] = system: HOP-62
[19] = system: SF-539
[20] = system: RPMI-8226

SMILES	GI50 [1]	GI50 [2]	GI50 [3]	GI50 [4]	GI50 [5]	GI50 [6]	GI50 [7]	GI50 [8]	GI50 [9]	GI50 [10]	GI50 [11]	GI50 [12]	GI50 [13]	GI50 [14]	GI50 [15]	GI50 [16]	GI50 [17]	GI50 [18]	GI50 [19]	GI50 [20]
Cc1cc(S(=O)(=O)Nc2nnc3cnc4ccccc4n23)c(S)cc1Cl	> 100 µM (inactive)	> 100 µM (inactive)	35.2 µM (inactive)	> 100 µM (inactive)	> 100 µM (inactive)	> 88.5 µM (inactive)	> 100 µM (inactive)	> 100 µM (inactive)	> 100 µM (inactive)	> 100 µM (inactive)	> 100 µM (inactive)	> 54.5 µM (inactive)	> 100 µM (inactive)	> 100 µM (inactive)	51.9 µM (inactive)	> 100 µM (inactive)	> 100 µM (inactive)	79.4 µM (inactive)	> 100 µM (inactive)	> 100 µM (inactive)
C=C1CC(COc2cc(=O)oc3ccccc23)(c2ccccc2)OC1=O (stereo not given)	1.33 µM (inactive)	1.51 µM (inactive)	6.64 µM (inactive)	1.77 µM (inactive)	2.12 µM (inactive)	1.53 µM (inactive)	0.637 µM (active)	1.38 µM (inactive)	5.15 µM (inactive)	1.91 µM (inactive)	1.51 µM (inactive)	4.25 µM (inactive)	1.56 µM (inactive)	0.407 µM (active)	16.4 µM (inactive)	1.3 µM (inactive)	3.27 µM (inactive)	8.53 µM (inactive)	2.74 µM (inactive)	0.507 µM (active)
O=C1c2cccc(NCCNCCO)c2C(=O)c2cccc(NCCNCCO)c21	1.82 µM (inactive)	1.81 µM (inactive)	4.72 µM (inactive)	1.87 µM (inactive)	0.889 µM (active)	2.96 µM (inactive)	1.12 µM (active)	0.52 µM (active)	1.79 µM (inactive)	0.782 µM (active)	1.56 µM (inactive)	1.03 µM (active)	0.312 µM (active)	1.6 µM (inactive)	0.897 µM (active)	0.64 µM (active)	2.26 µM (inactive)	1.29 µM (inactive)	0.601 µM (active)	1.2 µM (inactive)
c1ccc(P(CCP(c2ccccn2)c2ccccn2)c2ccccc2)cc1	25.2 µM (inactive)	19.6 µM (inactive)	33.3 µM (inactive)	< 0.01 µM (active)	50.7 µM (inactive)	32.9 µM (inactive)	0.0783 µM (active)	0.0247 µM (active)	0.497 µM (active)	14 µM (inactive)	< 0.01 µM (active)	0.863 µM (active)	0.0314 µM (active)	0.0398 µM (active)	0.498 µM (active)	> 90.8 µM (inactive)	48.9 µM (inactive)	0.0268 µM (active)	0.577 µM (active)	0.0409 µM (active)
S=C1NC(c2ccccc2)NC(c2ccccc2)S1 (stereo not given)	> 100 µM (inactive)	> 100 µM (inactive)	> 100 µM (inactive)	> 100 µM (inactive)	> 100 µM (inactive)	> 100 µM (inactive)	42.2 µM (inactive)	14.1 µM (inactive)	> 100 µM (inactive)	> 100 µM (inactive)	> 100 µM (inactive)	> 100 µM (inactive)	41.6 µM (inactive)	> 100 µM (inactive)	55.5 µM (inactive)	> 100 µM (inactive)	> 100 µM (inactive)	74.8 µM (inactive)	> 100 µM (inactive)	> 100 µM (inactive)
CN(CCNC(=O)c1nn(-c2ccccc2)c2c1Cc1ccccc1-2)CCNC(=O)c1nn(-c2ccccc2)c2c1Cc1ccccc1-2	1.82 µM (inactive)	1.79 µM (inactive)	1.63 µM (inactive)	1.87 µM (inactive)	1.82 µM (inactive)	4.06 µM (inactive)	2.11 µM (inactive)	1.85 µM (inactive)	1.81 µM (inactive)	1.83 µM (inactive)	1.67 µM (inactive)	1.69 µM (inactive)	1.57 µM (inactive)	1.32 µM (inactive)	2.14 µM (inactive)	2.53 µM (inactive)	2 µM (inactive)	1.79 µM (inactive)	2.17 µM (inactive)	4.01 µM (inactive)
COc1ccc(/C=N/c2ccc(-c3nc4ccccc4[nH]3)cc2)cc1OC	> 100 µM (inactive)	> 100 µM (inactive)	> 100 µM (inactive)	> 100 µM (inactive)	> 100 µM (inactive)	89.1 µM (inactive)	> 100 µM (inactive)	> 100 µM (inactive)	> 100 µM (inactive)	> 100 µM (inactive)	49.3 µM (inactive)	22.3 µM (inactive)	> 100 µM (inactive)	63.7 µM (inactive)	> 100 µM (inactive)	> 100 µM (inactive)	> 100 µM (inactive)	> 100 µM (inactive)	> 100 µM (inactive)	> 100 µM (inactive)
O=C1NC2=NOC(=O)NC2=NO1	> 200 µM (inactive)	> 200 µM (inactive)	> 200 µM (inactive)	> 200 µM (inactive)	> 200 µM (inactive)	> 200 µM (inactive)	> 200 µM (inactive)	> 200 µM (inactive)	> 200 µM (inactive)	> 200 µM (inactive)	> 200 µM (inactive)	> 200 µM (inactive)	> 200 µM (inactive)	> 200 µM (inactive)	> 200 µM (inactive)	> 200 µM (inactive)	> 200 µM (inactive)	> 200 µM (inactive)	> 200 µM (inactive)	> 200 µM (inactive)
C1=C(c2ccccc2)C(N2CCOCC2)Oc2ccccc21 (stereo not given)	> 100 µM (inactive)	> 100 µM (inactive)	87.7 µM (inactive)	> 100 µM (inactive)	> 100 µM (inactive)	45.3 µM (inactive)	91.8 µM (inactive)	> 100 µM (inactive)	> 100 µM (inactive)	> 100 µM (inactive)	> 100 µM (inactive)	32.5 µM (inactive)	> 100 µM (inactive)	42.7 µM (inactive)	> 100 µM (inactive)	> 100 µM (inactive)	> 100 µM (inactive)	> 100 µM (inactive)	> 100 µM (inactive)	96.4 µM (inactive)
CC1=C(C#N)C23C(=O)c4ccccc4C(=O)C2=C(O)C=CC3(O)N1 (stereo not given)	1.78 µM (inactive)	2.19 µM (inactive)	2.37 µM (inactive)	3.84 µM (inactive)	1.97 µM (inactive)	1.13 µM (inactive)	1.15 µM (inactive)	1.23 µM (inactive)	13.6 µM (inactive)	2.24 µM (inactive)	2.38 µM (inactive)	2.3 µM (inactive)	1.48 µM (inactive)	0.313 µM (active)	4.33 µM (inactive)	4.06 µM (inactive)	52 µM (inactive)	5.4 µM (inactive)	2.86 µM (inactive)	0.658 µM (active)
O=C1C=CC(=O)c2ncccc21	3.84 µM (inactive)	3.68 µM (inactive)	4.43 µM (inactive)	10.3 µM (inactive)	5.16 µM (inactive)	4.45 µM (inactive)	2.32 µM (inactive)	4.57 µM (inactive)	7.6 µM (inactive)	5.14 µM (inactive)	5.07 µM (inactive)	5.36 µM (inactive)	1.89 µM (inactive)	0.31 µM (active)	6.17 µM (inactive)	1.8 µM (inactive)	12.2 µM (inactive)	5.11 µM (inactive)	7.98 µM (inactive)	2.55 µM (inactive)
COc1ccc(/C=C/C(=O)c2ccccc2)cc1OC	16.7 µM (inactive)	15 µM (inactive)	13.3 µM (inactive)	20.7 µM (inactive)	16.7 µM (inactive)	18.2 µM (inactive)	3.21 µM (inactive)	5.3 µM (inactive)	16.4 µM (inactive)	14.6 µM (inactive)	17.2 µM (inactive)	14 µM (inactive)	6.85 µM (inactive)	8.89 µM (inactive)	11.2 µM (inactive)	15.7 µM (inactive)	14.2 µM (inactive)	15.4 µM (inactive)	11.1 µM (inactive)	7.41 µM (inactive)
CC(NC(=O)C(Cc1ccc([N+](=O)[O-])cc1)NC(=O)C(N)CCCCN)C(=O)NC(Cc1ccc([N+](=O)[O-])cc1)C(N)=O (stereo not given) (H-K[Phe(4-NO2)]A[Phe(4-NO2)]-NH2; configuration not given here)	50.8 µM (inactive)	> 50.5 µM (inactive)	44.4 µM (inactive)	85.3 µM (inactive)	> 38.6 µM (inactive)	27.6 µM (inactive)	> 20.5 µM (inactive)	20.4 µM (inactive)	32.7 µM (inactive)	24.9 µM (inactive)	26.2 µM (inactive)	> 37.5 µM (inactive)	> 30.5 µM (inactive)	18.7 µM (inactive)	> 85.3 µM (inactive)	47 µM (inactive)	> 100 µM (inactive)	11.7 µM (inactive)	58.1 µM (inactive)	29.2 µM (inactive)
CO[C@H]1C[C@H](O[C@H]2CC[C@]3(C=O)[C@H]4CC[C@]5(C)[C@@H](C6=CC(=O)OC6)CC[C@]5(O)[C@@H]4CC[C@]3(O)C2)O[C@H](C)[C@H]1O [CYMARIN]	0.225 µM (active)	0.528 µM (active)	0.308 µM (active)	0.157 µM (active)	0.107 µM (active)	0.207 µM (active)	0.184 µM (active)	0.233 µM (active)	0.133 µM (active)	0.042 µM (active)	0.448 µM (active)	0.4 µM (active)	< 0.0393 µM (active)	0.118 µM (active)	0.713 µM (active)	0.102 µM (active)	0.114 µM (active)	0.114 µM (active)	0.0809 µM (active)	0.27 µM (active)
